Assay results as given in PubChem BioAssay (NCI).
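Test compounds were applied to cells in 96-well plates for 48 hours at 5 doses. TGI is the concentration that stops growth completely.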

Assays:
Test in all cases: NCI tumour cell line growth inhibition, 48 h
[1] = test system: HCT-15 colon
[2] = test system: NCI-H522 lung
[3] = test system: A549 NSCLC
[4] = test system: MOLT-4 leukemia
[5] = test system: HT29 colon
[6] = test system: SNB-75 CNS
[7] = test system: SF-539 CNS
[8] = test system: DU-145 prostate
[9] = test system: OVCAR-4 ovarian
[10] = test system: HS 578T breast
[11] = test system: CAKI-1 renal
[12] = test system: SK-MEL-2 melanoma
[13] = test system: PC-3 prostate
[14] = test system: SK-MEL-5 melanoma
[15] = test system: UACC-62 melanoma
[16] = test system: LOX IMVI melanoma
[17] = test system: K-562 leukemia
[18] = test system: MDA-MB-435
[19] = test system: NCI-H460 lung
[20] = test system: COLO 205 colon
[21] = test system: EKVX NSCLC
[22] = test system: TK-10 renal
[23] = test system: HCT-116 colon
[24] = test system: ACHN renal
[25] = test system: NCI/ADR-RES ovarian
[26] = test system: MDA-N
[27] = test system: NCI-H23 lung
[28] = test system: M14 melanoma
[29] = test system: SK-MEL-28 melanoma
[30] = test system: OVCAR-8 ovarian
[31] = test system: MCF7 breast
[32] = test system: SF-295 CNS
[33] = test system: RXF 393 renal
[34] = test system: SK-OV-3 ovarian
[35] = test system: SN12C renal
[36] = test system: SF-268 CNS
[37] = test system: MDA-MB-231 breast
[38] = test system: U251 CNS
[39] = test system: NCI-H226 lung
[40] = test system: HOP-62 NSCLC
[41] = test system: CCRF-CEM leukemia
[42] = test system: OVCAR-3 ovarian
[43] = test system: A498 renal
[44] = test system: MALME-3M melanoma
[45] = test system: SW-620 colon
[46] = test system: UO-31 renal
[47] = test system: SR leukemia
[48] = test system: KM12 colon
[49] = test system: HL-60(TB) leukemia
[50] = test system: IGROV1 ovarian
[51] = test system: UACC-257 melanoma
[52] = test system: RPMI-8226 leukemia
[53] = test system: HOP-92 NSCLC
[54] = test system: OVCAR-5 ovarian
[55] = test system: 786-0 renal
[56] = test system: SNB-19 CNS
[57] = test system: HCC-2998 colon
[58] = test system: BT-549 breast

Measured: TGI

CN(CC(=O)O)c1ncc2c(n1)C=CCC2
> 100 µM: [1] | [2] | [3] | [4] | [5] | [6] | [7] | [8] | [9] | [10] | [11] | [12] | [13] | [14] | [15] | [16] | [17] | [18] | [19] | [20] | [21] | [22] | [23] | [24] | [25] | [26] | [27] | [28] | [29] | [30] | [31] | [32] | [33] | [34] | [35] | [36] | [37] | [38] | [39] | [40] | [41] | [42] | [43] | [44] | [45] | [46] | [47] | [48] | [49] | [50] | [51] | [52] | [53] | [54] | [55] | [56]

O=P1(c2ccccc2)c2ccccc2-c2ccccc21
> 100 µM: [1] | [2] | [3] | [4] | [6] | [7] | [8] | [57] | [10] | [11] | [12] | [13] | [14] | [15] | [16] | [17] | [18] | [20] | [21] | [22] | [23] | [26] | [27] | [29] | [30] | [31] | [32] | [33] | [34] | [35] | [36] | [37] | [39] | [58] | [40] | [41] | [42] | [45] | [46] | [48] | [49] | [50] | [51] | [52] | [53] | [55] | [56]
